The values that follow come from PMC8068036, “Synthesis of New Biscoumarin Derivatives, In Vitro Cholinesterase Inhibition, Molecular Modelling and Antiproliferative Effect in A549 Human Lung Carcinoma Cells” (International Journal of Molecular Sciences, 2021).

Data set [1] in a line: in vitro. How it is done: The parallel artificial membrane permeability assay (PAMPA) is used as a non-cell-based in vitro assay to predict BBB penetration and is carried out in a coated 96-well membrane filter. In our assays, the filter membrane of the donor plate was coated with PBL (Polar Brain Lipid, Avanti, Denver, CO, USA) in dodecane (4 µL of 20 mg mL^−1 PBL in dodecane), and the acceptor well was filled with 300 µL of phosphate buffered saline (PBS) (pH 7.4; VA). The tested compounds were first dissolved in DMSO, and the resulting mixture was diluted with PBS (pH 7.4) to reach the final concentration (40–100 µM) in the donor well. […] Three hundred microliters of the donor solution (VD) were added to the donor wells, and the donor filter plate was carefully placed onto the acceptor plate to ensure that the coated membrane was “in contact” with both the donor solution and the acceptor buffer. The test compound diffused from the donor well through the polar brain lipid membrane (area = 0.28 cm^2) to the acceptor well. The concentration of the tested compound in both the donor and acceptor wells was assessed after 3, 4, 5, and 6 h of incubation, respectively, in quadruplicate using a UV plate reader Synergy HT (Biotek, Winooski, VT, USA) at the maximum absorption wavelength of each compound. Additionally, solutions at the theoretical equilibrium of the given compound (i.e., the theoretical concentration if the donor and acceptor compartment were simply combined) were also prepared.

Data set [2] deals with A549 cells. The data set is described as follows: MTT assay, A549. The conditions noted are these: for IC50: Homo sapiens. Format: cell-based, human. How it is done:
Human lung carcinoma cell line A549 and CCD-18Co colon fibroblasts were purchased from the American Type Culture Collection (ATCC, Rockville, MD, USA). The A549 cells were cultured in a complete RPMI-1640 medium (Sigma-Aldrich, St. Louis, MO, USA), and CCD-18Co cells were cultured in an MEM medium (PAN-Biotech GmbH, Aidenbach, Germany). The media were supplemented with 10% fetal bovine serum (FBS; Biosera, Nuaille, France) and antibiotics (1% Antibiotic-Antimycotic 100× and 50 × 10^−3 g l^−1 gentamicin; Biosera) at 37 °C, 95% humidity, and 5% CO2.
Prior to the selected treatments, cells were seeded on 12-well μ-Chamber slides (ibidi GmbH, Martinsried, Germany) and 6 and/or 96-well plates (TPP, Trasadingen, Switzerland) and left to settle for 24 h. The biscoumarin derivative solutions (at concentrations ranging from 10–100 µM) were then added to cells for 24 or 48 h, and analysis was subsequently performed.
MTT assays were performed in order to evaluate changes in the metabolic activity of cells that had occurred as a consequence of treatment with the biscoumarin derivatives. A549 cells (15 × 10^3 cells/cm^2) and CCD-18Co ([…]) were seeded in 96-well microplates. The cells were treated for 24 and 48 h with different concentrations (10, 25, 35, 50, 65, 75, and 100 µM) of the derivatives. After the treatment, the MTT (3-(4,5-dimethylthiazol-2-yl)-2,5-diphenyltertrazolium bromide) solution in PBS (5 mg mL^−1) was added to each well. […]. The absorbance of formazan (λ = 584 nm) was measured using a BMG FLUOstar Optima spectrometer (BMG Labtech GmbH, Offenburg, Germany). The results were evaluated as percentages of the absorbance of the untreated control. Results are presented as the average percentage of cells from three independent experiments. IC50 values for the derivatives were extrapolated from a sigmoidal fit (dose–response curve) to the metabolic activity data using OriginPro 8.5.0 SR1 (OriginLab Corp., Northampton, MA, USA).
(Formazan colour is commonly taken as a measure of viable cells.)

Entries after “also recorded” stand apart in the source; their conditions may differ. Where two headings read alike, the source gives them in different places.

Regarding `COC(=O)Cc1cc(=O)oc2cc(OCCCCCCCCN3CCN(CCNC(=O)Cc4cc(=O)oc5cc(O)ccc45)CC3)ccc12` [12e, Methyl 2-[7-({2-[4-(2-{[2-(7-hydroxy-2-oxo-2H-4-chromenyl)acetyl]amino}etyl)piperazino]oktyl}oxy)-2-oxo-2H-4-chromenyl]acetate], the “BBB permeability prediction (in words)” value in data set [1] (PAMPA) is reported as “positive outcome; also recorded: high probability of BBB permeability; also recorded: high probability to cross the BBB”. Besides, the Papp in data set [1] (PAMPA, pH 7.4) turned out to be 13.4 ± 3.56 ×10⁻⁶ cm/s. Also, the “CNS Predicted Availability” value in data set [1] (classification from PAMPA-BBB Pe) was “CNS+ (CNS+: high BBB permeation predicted with Pe (×10^−6 cm s^−1) > 4.0)”. In data set [2] (10 to 100 μM, 24 and 48 h), the “Metabolic activity of A549 cells (in words)” value is “significant decrease”. Besides, the concentration for half-maximal inhibition (IC50) came out at 49 µM in data set [2] (A549, 24 h, read-out: IC50 A549 24 h) and 35 µM in data set [2] (A549, read-out: IC50 A549 48 h, 48 h).

The Papp is the rate of passage across a membrane or cell layer, normalised by area and donor concentration. What is called IC50 is the concentration needed to halve the response being measured.
